The subject of one data set is Escherichia coli. As to the kind of experiment: MIC determination, microtiter dilution. It is filed as cell-based, Escherichia coli str. K12 substr. MG1655. As to conditions: present study, two-fold dilution series in MHB, 37 °C, 24 h, turbidity at 560 nm, mean of three independent experiments. The protocol:
CAMPs were designed and synthesized as described previously in our works. The minimum inhibitory concentrations (MICs) for the Gram-negative bacterium Escherichia coli and Gram-positive bacterium Bacillus subtilis were determined earlier or in the present study. The MIC values for Escherichia coli were the same or higher than those for Bacillus subtilis. The CAMP concentrations tested were in the range up to 100 μM.
Escherichia coli str. K12 substr. MG1655 (Invitrogen) and Bacilus subtilis str. 168HT (Vavilov Institute of General Genetics, Russian Academy of Sciences, Moscow, Russia) were grown in Luria–Bertani broth (Difco, BD Difco, Thermo Fisher Scientific Inc., Waltham, MA, USA) according to standard procedure. Bacteria were stored with 10% glycerol at −70 °C until use. MIC determination was carried out by growing bacteria in 96-well microtitration plates in the presence of a two-fold dilution series of the peptide using the standard microtiter dilution method. Briefly, single bacterial clones were cultured overnight in Mueller–Hinton broth (MHB, BD Difco, Thermo Fisher Scientific Inc., Waltham, MA, USA) at 150 rpm and 37 °C, then transferred to fresh MHB and cultured until the logarithmic growth phase. […] After incubation at 37 °C for 24 h, the antimicrobial susceptibility was estimated by turbidity measurement at 560 nm using a microplate reader. […]

Another data set deals with erythrocytes. As to the kind of experiment: Hemolysis assay, erythrocytes in PBS. In kind it is cell-based, human. Particulars: 100 μM peptide in PBS, no plasma, 0.5 h, 37 °C; Triton X-100 = 100%. The protocol:
Erythrocytes were incubated (0.5 h, 37 °C) with different CAMP concentrations ranging from 6.25 μM to 100 μM. Incubation conditions chosen were similar to those used in other studies. Following incubation, the samples were centrifuged, and the supernatant analyzed spectrophotometrically for hemoglobin at 414 nm and 540 nm. Absorption at 414 nm provides higher sensitivity. The results were the same no matter which wavelength was used to monitor for hemoglobin.
The hemolytic activity of CAMPs was determined using a hemolysis assay measuring hemoglobin released from damaged cells. A working erythrocyte suspension (in PBS) was prepared so that its ten-fold dilution gave an optical density of 0.4 at 800 nm. This working suspension corresponded to a cell density of about 30 × 10^6 cells/mL. Aliquots of 125 μL of CAMP solutions of different concentrations were added to Eppendorf tubes. […] The supernatant (200 μL) was transferred to the wells of a microplate, and the absorbance of hemoglobin was measured by a Thermo Electron Multiskan Ascent microplate reader (Thermo Fisher Scientific Inc., Waltham, MA, USA), with a test wavelength of 414 nm as well as 540 nm and a background wavelength of 690 nm. The hemolysis percentage was calculated using the following equation: Hemolysis (%) = {(sample absorbance − negative control)/(positive control − negative control)} × 100.

No end group written: not given here.

As to FRIMRILRVLK-NH2 [pept_2], the “MIC (E. coli)” value against Escherichia coli came to 10 µM. For the same substance, the Hemolysis in the data set on erythrocytes is 10–15%.

These data come from PMC9503446, “Effects of Medicinal Leech-Related Cationic Antimicrobial Peptides on Human Blood Cells and Plasma” (Molecules, 2022).
